# Tested on: 4T1 tumor cells
# Experiment: Mouse bone metastasis model, intratibial 4T1 cells
# Format: in vivo, mouse (BALB/c)
# Conditions: for survival rate compared with the other groups: FIG. 8, days 13-27; for clinical signs scoring compared with the other groups: FIG. 9, days 0-27, high scoring = more clinical signs
# From the text: The purpose of this study was to assess the potential therapeutic efficacy of ACC stabilized with triphosphate (ACC-TP) on the development and progression of bone metastases in mouse model via intraperitoneal (IP) injections. The model is induced by intra osseous inoculation of 4T1 tumor cells (cells originated from mice mammary gland tumor). Two ACC concentrations were examined. Their efficacy was compared to CaCl2 as a control calcium source and to a common treatment of bone metastases (Bisphosphonate—Alendronic acid).
# The study was designed in order to assess the potential therapeutic efficacy of ACC-TP via intraperitoneal (IP) injections, on the development and progression of bone metastases in mouse model. The cancer model was induced by Intratibial injections of cancer cells to the Tibia bone. Intratibial injections are used when focusing on the relationships of cancer cells and bone after a tumor has metastasized, thus is considered the most appropriate for such studies.
# Female mice (BALB/c, 9 weeks old) were used for the experiment. […] Initial body weight was 16-19 gr. The mice were let to acclimatize 5 days prior to the experiment.
# The first control or test items administration day was defined as “Day 1”. On study day “0” all mice were anesthetized used intraperitoneal injection of Ketamine (80 mg/kg) and Xylazine (5 mg/kg). 4T1 (CRL-2539, B1) cells were injected intratibial into the Tibia in a dose level of 70×10^3 cells and dose volume of 10 μl per animal.
# The control or test Items comprising calcium were administered intraperitoneally by a 25 G needle, daily (6 days a week) from Day 1 until study termination. The Alendronic acid was administered subcutaneously once a day, 3 days a week.
# At study termination (Day 23 and Day 27), animals were […] by CO2 asphyxiation.
# The following measurements and observations were recorded: (i) Mortality and morbidity (daily); (ii) Clinical signs observations (twice a week); (iii) Body weight measurements (once a week and at study termination); (iv) Radiographic analysis; and (v) Amount of food and water consumption (once a week).
# Observations were performed for any changes in skin, fur, eyes, mucous membranes, respiratory, occurrence of secretions and excretions (e.g. diarrhea). Changes in gait, posture and response to handling, as the presence of bizarre behavior, tremors, convulsions, sleep and coma were also included.
# X-ray monitoring were performed at Day “0” and Day “20” (X-ray generator Girth 8015).
# [1] = after intratibial 4T1 injection on day 0
Structure (SMILES),survival rate compared with the other groups,clinical signs scoring compared with the other groups,mice deceased as early as day [1] [days],survival percentages (up to day 23 of study duration),day up to which no mice had deceased [1] [days],overall performance / therapeutic effect (conclusion from survival rate and clinical signs)
"[Ca+2].[Cl-].[Cl-] [CaCl2, calcium chloride]",lower survival percentage,higher number of clinical signs,16,higher than 75%,,
NCCCC(O)(P(=O)(O)O)P(=O)(O)O [Alendronic acid],survival rate is lower,highest scoring of clinical signs,,,19,worst performance

# Source: patent publication US12115184B2, “Amorphous calcium carbonate stabilized with polyphosphates or bisphosphonates” (AMORPHICAL LTD., priority 2015, dated 2024)
